The source of these data is ChEMBL document CHEMBL1201862, “PubChem BioAssay data set” (2004).

Series [1] concerns the target T1, E3 ubiquitin-protein ligase XIAP (Homo sapiens, UniProt P98170). The series can be described thus: Counter Screen using XIAP-Bir3 for Chemical Antagonists of Bir1/2 domains of IAP-family anti-apoptotic proteins. [Related pubchem assays (depositor defined):AID1018, AID1449, AID1514, AID1638, AID1749, AID1750, AID488957, AID488963].
The nature of series [2]: inhibitors of intracellular T. cruzi replication, confirmation, NIH3T3 host cells, beta-gal luminescence (AID 2044).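 Also: intracellular parasites grown in NIH/3T3 mouse fibroblasts as host cells; luminescent beta-galactosidase reporter signal from transgenic T. cruzi replicating inside host cells; inhibitors lower the luminescence signal.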 The format is functional, cell-based.
Series [3] can be described thus: cytotoxicity toward NIH3T3 fibroblasts, dose response, counter-screen, cell-based, ATP luminescence, mouse fibroblasts (AID 2010).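 Also: cells exposed to compound for about 90 hours before reading.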 The format is functional.
Series [4] has as its target T1, E3 ubiquitin-protein ligase XIAP. Description: XIAP antagonists, biochemical, IAP family, fluorescence polarization (AID 1018). The format is functional. A general note: In fluorescence polarisation assays a small probe gives low polarisation when free and higher when bound to something large.
Series [5] has as its system HEK293. The series can be described thus: cells. The following applies: Homo sapiens. The series is classed as functional, cell-based.
Series [6] has as its target T2, Nuclear receptor subfamily 0 group B member 1 (Homo sapiens, UniProt P51843).
T2 sequence (P51843 whole entry): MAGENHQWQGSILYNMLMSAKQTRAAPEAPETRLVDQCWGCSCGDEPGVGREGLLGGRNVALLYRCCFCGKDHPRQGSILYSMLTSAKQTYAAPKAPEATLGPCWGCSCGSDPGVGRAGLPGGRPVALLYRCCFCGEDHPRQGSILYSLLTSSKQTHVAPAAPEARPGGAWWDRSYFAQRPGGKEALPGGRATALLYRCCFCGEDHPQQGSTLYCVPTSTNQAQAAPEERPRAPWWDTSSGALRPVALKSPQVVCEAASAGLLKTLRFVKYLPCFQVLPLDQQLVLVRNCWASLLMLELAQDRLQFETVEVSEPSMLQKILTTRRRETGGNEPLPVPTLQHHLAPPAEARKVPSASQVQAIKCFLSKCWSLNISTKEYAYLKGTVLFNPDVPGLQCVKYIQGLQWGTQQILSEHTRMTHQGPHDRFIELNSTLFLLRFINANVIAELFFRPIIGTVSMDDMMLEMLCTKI
Description: Luminescence-based cell-based high throughput dose response assay for inhibitors of the orphan nuclear receptor subfamily 0, group B, member 1 (DAX1; NR0B1). [Related pubchem assays (depositor defined):AID504766, AID504790]. The series is classed as functional.

The target in series [7] is T3, C-C chemokine receptor type 6 (Homo sapiens, UniProt P51684).
T3 sequence (P51684 whole entry): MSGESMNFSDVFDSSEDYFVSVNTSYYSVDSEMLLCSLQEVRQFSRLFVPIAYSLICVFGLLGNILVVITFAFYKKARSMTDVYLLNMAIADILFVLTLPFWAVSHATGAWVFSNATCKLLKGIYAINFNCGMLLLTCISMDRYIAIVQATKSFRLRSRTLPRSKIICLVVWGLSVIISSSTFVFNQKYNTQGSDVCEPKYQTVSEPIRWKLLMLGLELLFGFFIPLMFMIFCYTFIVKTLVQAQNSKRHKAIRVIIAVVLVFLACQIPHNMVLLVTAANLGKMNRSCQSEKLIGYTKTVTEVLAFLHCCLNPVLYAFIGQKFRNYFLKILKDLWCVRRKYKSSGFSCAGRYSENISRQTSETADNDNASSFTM
The series can be described thus: CCR6 receptor antagonists, dose response, cell-based, luminescent beta-arrestin readout (AID 504728). The format is functional.

In series [8] the target is Beta-galactosidase (Escherichia coli, UniProt Q8VNN2). Description: beta-galactosidase enzyme inhibitors and activators, dose response, artefact control for CCR6 antagonist project, biochemical, E. coli enzyme, set 3 (AID 504712). The series is classed as functional.
Beta-galactosidase, sequence (Q8VNN2 whole entry): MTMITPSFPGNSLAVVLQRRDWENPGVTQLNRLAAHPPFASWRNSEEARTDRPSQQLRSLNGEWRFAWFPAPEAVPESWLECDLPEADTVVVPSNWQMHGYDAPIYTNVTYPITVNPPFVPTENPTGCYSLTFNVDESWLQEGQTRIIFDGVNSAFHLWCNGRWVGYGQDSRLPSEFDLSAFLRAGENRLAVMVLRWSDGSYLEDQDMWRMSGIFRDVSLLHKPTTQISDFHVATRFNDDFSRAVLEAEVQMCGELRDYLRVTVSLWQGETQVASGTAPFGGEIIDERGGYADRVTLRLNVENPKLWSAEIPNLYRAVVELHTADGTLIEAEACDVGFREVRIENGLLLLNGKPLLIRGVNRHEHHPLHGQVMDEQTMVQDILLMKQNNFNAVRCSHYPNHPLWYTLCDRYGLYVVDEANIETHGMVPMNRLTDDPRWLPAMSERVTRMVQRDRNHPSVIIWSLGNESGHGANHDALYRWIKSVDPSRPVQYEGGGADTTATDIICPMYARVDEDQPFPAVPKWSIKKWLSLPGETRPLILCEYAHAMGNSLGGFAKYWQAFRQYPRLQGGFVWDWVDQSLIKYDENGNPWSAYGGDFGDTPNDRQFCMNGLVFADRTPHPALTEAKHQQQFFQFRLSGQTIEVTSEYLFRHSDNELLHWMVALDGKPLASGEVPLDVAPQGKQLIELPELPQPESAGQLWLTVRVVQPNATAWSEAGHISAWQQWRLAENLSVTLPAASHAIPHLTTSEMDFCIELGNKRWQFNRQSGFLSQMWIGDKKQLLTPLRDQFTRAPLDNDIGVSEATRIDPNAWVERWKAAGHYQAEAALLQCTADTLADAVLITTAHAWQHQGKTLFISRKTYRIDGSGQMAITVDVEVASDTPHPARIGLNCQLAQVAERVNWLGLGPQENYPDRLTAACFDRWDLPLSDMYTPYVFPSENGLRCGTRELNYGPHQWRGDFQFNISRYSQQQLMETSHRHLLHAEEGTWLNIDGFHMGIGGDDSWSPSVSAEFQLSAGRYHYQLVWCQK
Series [9] addresses Cytochrome P450 2C9 (Homo sapiens, UniProt P11712).
For series [10], the target named is Cytochrome P450 3A4 (Homo sapiens, UniProt P08684).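 Also: CYP3A4 tested as one member of a cytochrome P450 panel screen.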
Cytochrome P450 3A4, sequence (P08684 whole entry): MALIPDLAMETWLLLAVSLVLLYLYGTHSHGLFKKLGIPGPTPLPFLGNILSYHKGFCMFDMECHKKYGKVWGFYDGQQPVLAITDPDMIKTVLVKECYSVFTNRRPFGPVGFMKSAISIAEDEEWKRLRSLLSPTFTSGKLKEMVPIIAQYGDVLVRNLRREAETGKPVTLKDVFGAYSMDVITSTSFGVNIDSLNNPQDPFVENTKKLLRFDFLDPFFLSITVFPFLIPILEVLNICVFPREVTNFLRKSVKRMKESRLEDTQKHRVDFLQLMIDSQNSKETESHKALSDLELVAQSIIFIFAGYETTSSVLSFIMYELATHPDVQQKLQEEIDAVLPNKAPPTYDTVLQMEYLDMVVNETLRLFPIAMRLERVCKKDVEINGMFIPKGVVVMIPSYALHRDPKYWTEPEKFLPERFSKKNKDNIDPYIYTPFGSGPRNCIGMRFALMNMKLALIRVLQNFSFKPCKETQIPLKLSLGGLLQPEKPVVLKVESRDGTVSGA
Series [11] has as its target Cytochrome P450 2C19 (Homo sapiens, UniProt P33261). Description: Cytochrome panel assay with activity outcomes. Panel member name: p450-cyp2c19 Compounds with AC50 equal or less than 10 uM are considered active. The series is classed as functional. To be noted: read-out: AC50.
Series [12] addresses T4, Cytochrome P450 1A2 (Homo sapiens, UniProt P05177).
T4 sequence (P05177 whole entry): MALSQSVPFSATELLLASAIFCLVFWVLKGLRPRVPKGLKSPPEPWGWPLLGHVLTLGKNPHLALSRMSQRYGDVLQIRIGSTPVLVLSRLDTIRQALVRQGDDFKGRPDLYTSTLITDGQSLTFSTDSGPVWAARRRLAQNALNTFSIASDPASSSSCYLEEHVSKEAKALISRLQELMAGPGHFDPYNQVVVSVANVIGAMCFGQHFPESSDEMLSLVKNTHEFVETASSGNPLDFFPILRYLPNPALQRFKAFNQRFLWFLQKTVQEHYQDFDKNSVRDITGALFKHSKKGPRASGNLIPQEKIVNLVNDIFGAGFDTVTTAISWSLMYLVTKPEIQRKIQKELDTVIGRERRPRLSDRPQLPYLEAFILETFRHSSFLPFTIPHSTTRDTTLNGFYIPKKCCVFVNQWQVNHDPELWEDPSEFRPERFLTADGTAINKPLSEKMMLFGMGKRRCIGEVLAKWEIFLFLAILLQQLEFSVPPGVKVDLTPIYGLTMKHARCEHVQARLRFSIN

The target in series [13] is Dual specificity tyrosine-phosphorylation-regulated kinase 1A (Rattus norvegicus, UniProt Q63470). The format is biochemical, Homo sapiens.
The subject of series [14] is CHO. The series can be described thus: cytotoxicity in TLR9-MyD88 CHO cells, dose response, cytotoxicity control for TLR9-MyD88 binding inhibitor project, cell-based, luminescence (AID 588339).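 Also: CHO cells stably coexpressing TLR9 and MyD88 fusions from primary screen; compound exposure lasted 48 hours before viability readout.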 The series is classed as functional, hamster. The following applies: Cricetulus griseus.
For series [15], the target named is Beta Lactamase (Pseudomonas aeruginosa, UniProt Q932Y6). Description: beta-lactamase reporter inhibitor potency, dose response, artefact control for TLR9-MyD88 binding inhibitor project, BLA reporter cells, FRET fluorescence (AID 588341).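 Also: cell based assay in CHO-K1 cells stably expressing beta-lactamase.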 The series is classed as cell-based.
Beta Lactamase, sequence (Q932Y6 whole entry): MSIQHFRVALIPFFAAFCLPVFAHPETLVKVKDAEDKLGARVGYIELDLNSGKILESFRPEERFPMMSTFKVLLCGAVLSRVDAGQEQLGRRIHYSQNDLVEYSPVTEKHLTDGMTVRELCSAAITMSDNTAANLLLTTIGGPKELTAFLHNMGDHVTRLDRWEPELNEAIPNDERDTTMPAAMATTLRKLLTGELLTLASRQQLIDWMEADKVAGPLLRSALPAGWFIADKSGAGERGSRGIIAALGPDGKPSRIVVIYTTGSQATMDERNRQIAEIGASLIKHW
Series [16] in a line: cells. The format is functional.
Series [17] in a line: THP-1 cell cytotoxicity, dose response, cytotoxicity control for non-replicating M. tuberculosis project (AID 489025). The format is functional.
The test system of series [18] is Streptococcus sp. 'group A'. Description: growth inhibition of control SK(-) GAS strain, dose response, counter-screen for streptokinase expression inhibitor project, luminescence, kanamycin, BacTiterGlo, confirmation (AID 1900). The format is functional, organism-based. In general terms: A counterscreen serves to expose hits that act by an unwanted route or on another target.

Series [19] deals with Heat shock protein HSP 90-alpha (Homo sapiens, UniProt P07900). The format is functional, organism-based.
In series [20] the test system is Streptococcus. The series can be described thus: Group A Streptococcus viability loss, dose response, counter-screen for streptokinase expression inhibitor project, luminescence, BacTiterGlo (AID 1915).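 Also: potency for reduction of bacterial viability or growth.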 The series is classed as functional, organism-based.
Series [21] deals with T5, Streptokinase A (Streptococcus pyogenes serotype M1, UniProt P10520).
T5 sequence (P10520 whole entry): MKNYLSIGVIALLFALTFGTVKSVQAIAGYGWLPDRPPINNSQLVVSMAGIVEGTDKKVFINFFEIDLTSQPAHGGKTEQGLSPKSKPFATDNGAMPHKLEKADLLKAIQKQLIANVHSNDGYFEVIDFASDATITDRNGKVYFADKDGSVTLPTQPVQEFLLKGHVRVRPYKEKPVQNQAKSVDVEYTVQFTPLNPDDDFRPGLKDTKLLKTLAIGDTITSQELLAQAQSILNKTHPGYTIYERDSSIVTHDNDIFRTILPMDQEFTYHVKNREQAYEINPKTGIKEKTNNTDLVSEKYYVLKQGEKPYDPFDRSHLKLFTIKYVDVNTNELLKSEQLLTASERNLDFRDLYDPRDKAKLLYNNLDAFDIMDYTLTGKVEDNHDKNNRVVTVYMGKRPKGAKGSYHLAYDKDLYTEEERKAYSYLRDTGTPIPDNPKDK
The series can be described thus: S. pyogenes streptokinase expression inhibitors, potency, dose response, plasminogen activation absorbance, OD405 (AID 1914).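 Also: secreted streptokinase activity via plasminogen activation per viability signal from cell pellet.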 The series is classed as functional, Streptococcus pyogenes M1 GAS.

Series [22] addresses T6, Methionyl-tRNA synthetase, putative (Trypanosoma brucei brucei, UniProt Q38C91).
T6 sequence (Q38C91 whole entry): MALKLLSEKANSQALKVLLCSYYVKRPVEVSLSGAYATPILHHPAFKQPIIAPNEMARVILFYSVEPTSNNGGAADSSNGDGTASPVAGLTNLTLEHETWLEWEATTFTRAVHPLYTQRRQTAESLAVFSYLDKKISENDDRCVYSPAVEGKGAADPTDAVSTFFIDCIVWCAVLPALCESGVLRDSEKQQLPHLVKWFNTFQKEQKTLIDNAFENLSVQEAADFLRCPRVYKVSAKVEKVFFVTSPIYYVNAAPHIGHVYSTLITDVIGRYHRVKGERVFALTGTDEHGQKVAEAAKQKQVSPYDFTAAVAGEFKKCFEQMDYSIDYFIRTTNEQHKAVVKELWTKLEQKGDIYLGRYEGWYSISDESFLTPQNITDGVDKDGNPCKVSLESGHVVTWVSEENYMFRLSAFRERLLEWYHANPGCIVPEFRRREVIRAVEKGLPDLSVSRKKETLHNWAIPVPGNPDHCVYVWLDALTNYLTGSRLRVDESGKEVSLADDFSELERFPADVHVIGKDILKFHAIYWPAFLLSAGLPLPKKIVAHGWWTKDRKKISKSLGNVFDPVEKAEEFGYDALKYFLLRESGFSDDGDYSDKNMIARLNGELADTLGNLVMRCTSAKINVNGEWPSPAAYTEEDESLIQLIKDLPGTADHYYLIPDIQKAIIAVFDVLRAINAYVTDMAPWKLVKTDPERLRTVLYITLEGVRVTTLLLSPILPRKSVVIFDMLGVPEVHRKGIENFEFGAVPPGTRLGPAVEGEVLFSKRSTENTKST
The format is functional, Trypanosoma brucei brucei strain 927/4 GUTat10.1.

A short description of series [23]: Counterscreen for inhibitors of Trypanosoma brucei methionyl tRNA synthetase (MetRS): Luminescence-based cell-based high throughput dose response assay to identify compounds that are cytotoxic to Jurkat human T lymphocyte cells. The series is classed as functional.
The target of series [24] is T6, Methionyl-tRNA synthetase, putative. The series is classed as functional, Trypanosoma brucei brucei strain 927/4 GUTat10.1. This is another data set of the same source.

SMILES strings stand for the structures. Calls of active or inactive are those of the source.

T1 sequence (P98170 whole entry): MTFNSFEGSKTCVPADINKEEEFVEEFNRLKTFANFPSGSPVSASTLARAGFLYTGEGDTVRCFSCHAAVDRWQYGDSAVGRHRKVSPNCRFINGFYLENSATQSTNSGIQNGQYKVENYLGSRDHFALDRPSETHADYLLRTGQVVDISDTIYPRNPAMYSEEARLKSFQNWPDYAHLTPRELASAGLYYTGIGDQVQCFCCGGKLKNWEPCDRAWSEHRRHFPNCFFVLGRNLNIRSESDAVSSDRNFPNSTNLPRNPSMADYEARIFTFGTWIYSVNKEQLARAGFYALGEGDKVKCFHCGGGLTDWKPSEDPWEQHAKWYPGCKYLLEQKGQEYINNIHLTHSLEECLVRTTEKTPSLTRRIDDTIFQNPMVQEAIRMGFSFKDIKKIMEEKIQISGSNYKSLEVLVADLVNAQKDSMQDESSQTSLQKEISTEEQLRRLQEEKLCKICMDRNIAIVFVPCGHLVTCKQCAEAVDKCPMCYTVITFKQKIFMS
Cytochrome P450 2C19, sequence (P33261 whole entry): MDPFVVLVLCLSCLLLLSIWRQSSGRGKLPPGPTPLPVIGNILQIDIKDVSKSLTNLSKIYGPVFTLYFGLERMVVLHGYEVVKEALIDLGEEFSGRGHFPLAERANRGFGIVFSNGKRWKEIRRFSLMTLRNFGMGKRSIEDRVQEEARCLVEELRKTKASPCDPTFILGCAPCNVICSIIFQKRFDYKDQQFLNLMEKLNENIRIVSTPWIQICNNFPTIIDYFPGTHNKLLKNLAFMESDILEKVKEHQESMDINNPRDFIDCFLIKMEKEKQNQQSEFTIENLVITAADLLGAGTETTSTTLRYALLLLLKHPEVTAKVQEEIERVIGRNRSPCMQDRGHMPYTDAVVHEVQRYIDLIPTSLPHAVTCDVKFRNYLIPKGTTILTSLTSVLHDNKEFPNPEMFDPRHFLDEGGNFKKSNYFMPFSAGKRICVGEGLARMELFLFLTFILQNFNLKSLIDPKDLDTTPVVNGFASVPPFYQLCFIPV
Cytochrome P450 2C9, sequence (P11712 whole entry): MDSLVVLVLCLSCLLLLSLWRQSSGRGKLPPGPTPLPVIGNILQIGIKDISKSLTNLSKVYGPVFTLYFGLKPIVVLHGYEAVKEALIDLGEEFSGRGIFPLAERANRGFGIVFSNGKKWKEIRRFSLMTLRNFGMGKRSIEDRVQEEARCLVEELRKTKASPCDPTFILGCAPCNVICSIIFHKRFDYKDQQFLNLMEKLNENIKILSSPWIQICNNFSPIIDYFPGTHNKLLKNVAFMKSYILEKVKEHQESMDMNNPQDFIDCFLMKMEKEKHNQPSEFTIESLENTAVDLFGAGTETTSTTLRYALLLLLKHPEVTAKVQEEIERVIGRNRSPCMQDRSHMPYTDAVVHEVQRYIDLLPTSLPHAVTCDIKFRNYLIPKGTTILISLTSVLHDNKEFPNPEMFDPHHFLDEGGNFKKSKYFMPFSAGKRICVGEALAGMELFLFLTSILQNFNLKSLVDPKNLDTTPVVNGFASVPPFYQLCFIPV

By IC50 is commonly meant the concentration needed to halve the response being measured. One may read the EC50 as the concentration giving half of the maximal effect. Turning to `S=C(Nc1ccc(Br)cc1)N1CCn2cccc2C1c1cccnc1` (stereo not given), the IC50 in [1] is > 100 µM (inactive); in series [4] it was > 100 µM (not active). Further, the EC50 in series [2] is 0.605 µM (active); in series [3], > 60 µM (not active).

As to `Cn1c(NCc2ccccc2Cl)nc2ccccc21`, the IC50 in series [5] and in series [6] was > 67.6 µM (inactive) in each case.

Consider `COc1ccccc1C1SCCN1S(=O)(=O)c1cccc(C(F)(F)F)c1` (stereo not given), for which the IC50 is > 100 µM (inactive) in [1] and > 100 µM (not active) in series [4].

`Cc1ccc(C(=C2C3C=CC2C2C(=O)NC(=O)C32)c2ccc(C)cc2)cc1` (stereo not given): the IC50 in [7] and in [8] was > 66.6 µM (inactive) throughout.

Usually AC50 stands for the concentration giving half of the maximal activity seen. Turning to `CC(C)NC(=O)N1CCC2(CC1)CCN(C(=O)c1cc(C(F)(F)F)cc(C(F)(F)F)c1)CC2`, the AC50 result in [9] and in series [10] was “inconclusive” each time.

In the case of `COc1ccc(-c2cc3nc(C)cc(C)n3n2)cc1`, the IC50 in series [5] and in series [6] was > 67.5 µM (inactive) throughout.

As for `Cc1c2c(nc3c(C(=O)NC4CCCC4)cnn13)CCCC2`, the results for the AC50 entry in [10] and in series [11] were “inconclusive” and 39.8 µM (inconclusive), respectively.

As for `O=C(c1cc(-c2ccccc2Cl)on1)N1CCN(C(=O)c2ccco2)CC1`, the AC50 result in series [9] is “inconclusive”; in series [10], “inconclusive”; in series [11] it was 25.1 µM (inconclusive); in series [12] it was 25.1 µM (inconclusive).

On to `C=C(C)[C@@H](O)COc1c2ccoc2cc2oc(=O)ccc12`, for which the AC50 in series [13] was 9.08 µM (active).

Turning to `O=[N+]([O-])c1ccc(N/N=C/C=C/c2ccco2)cc1`, the IC50 in series [14] is > 49.8 µM (inactive); in [15], 4.19 µM (active).

As a reminder, the CC50 is the concentration at which the toxic effect on the cells reaches its halfway point. `CC1=C(/C=C/C(C)=N\NC(=O)c2ccncc2)C(C)(C)CCC1`: the IC50 in series [7] is > 66.6 µM (inactive); in series [8], > 66.6 µM (inactive); in series [16], 0.61 µM (active). For the same compound, the CC50 in series [17] is > 40 µM (active).

On to `Oc1ccc(/C=N/N(Cc2ccccc2)c2ccccc2)cc1`, for which the EC50 was 7.47 µM (active) in [18], 9.38 µM (active) in series [20] and > 150 µM (not active) in series [21]. For the same compound, the AC50 in series [19] was 9.12 µM (active).

Consider `Clc1ccc(COC(Cn2ccnc2)c2ccc(Cl)cc2Cl)c(Cl)c1` (stereo not given) [MICONAZOLE], for which the IC50 was 12.9 µM (inactive) in [22], 33 µM (inactive) in series [23] and 11.7 µM (inactive) in series [24]. For the same compound, the AC50 in [19] is < 0.195 µM (active).
